Measurements as given in patent US8829193B2, “PIM kinase inhibitors and methods of their use” (Novartis AG, priority 2008, dated 2014).

How the values were obtained:
Pim1 kinase = Pim1 kinase (Homo sapiens (Human), UniProt P11309); experiment: Pim1 ATP depletion assay; type: biochemical; settings: 20 μM ATP, 40 μM BAD peptide, 2.5 nM PIM1
Experimental: (§1) The activity of PIM1 is measured using a luciferase-luciferin based ATP detection reagent to quantify ATP depletion resulting from kinase-catalyzed phosphoryl transfer to a peptide substrate. Compounds to be tested are dissolved in 100% DMSO and directly distributed into white 384-well plates at 0.5 μl per well. […] After 15 minutes, 10 μl of 40 μM ATP in assay buffer is added. Final assay concentrations are 2.5 nM PIM1, 20 μM ATP, 40 μM BAD peptide and 2.5% DMSO. The reaction is performed until approximately 50% of the ATP is depleted, then stopped with the addition of 20 μl KinaseGlo Plus (Promega Corporation) solution. The stopped reaction is incubated for 10 minutes and the remaining ATP detected via luminescence on the Victor2 (Perkin Elmer).

Pim2 kinase = Pim2 kinase (Homo sapiens (Human), UniProt Q9P1W9); experiment: Pim2 ATP depletion assay; type: biochemical; settings: 4 μM ATP, 10 μM BAD peptide, 5 nM PIM2
Pim2 kinase, sequence (Q9P1W9 whole entry): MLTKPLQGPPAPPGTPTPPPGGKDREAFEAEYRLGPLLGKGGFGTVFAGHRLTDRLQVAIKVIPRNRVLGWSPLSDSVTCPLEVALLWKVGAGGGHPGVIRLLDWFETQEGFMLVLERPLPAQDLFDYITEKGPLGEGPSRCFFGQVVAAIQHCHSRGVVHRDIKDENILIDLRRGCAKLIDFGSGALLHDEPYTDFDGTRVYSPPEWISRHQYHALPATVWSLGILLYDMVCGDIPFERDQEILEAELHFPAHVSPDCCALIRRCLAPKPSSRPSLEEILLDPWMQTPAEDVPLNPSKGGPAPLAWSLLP
Experimental: as §1, with “of PIM2” for “of PIM1”, “0.5 piper” for “0.5 μl per”, “of 8” for “of 40”, “are 5” for “are 2.5”, “nM PIM2, 4” for “nM PIM1, 20”, “ATP, 10” for “ATP, 40”

Pim3 kinase = Pim3 kinase (Homo sapiens (Human), UniProt Q86V86); experiment: Pim3 ATP depletion assay; type: biochemical; settings: 40 μM ATP, 100 μM BAD peptide
Experimental: The activity of PIM3 is measured using a luciferase-luciferin based ATP detection reagent to quantify ATP depletion resulting from kinase-catalyzed phosphoryl transfer to a peptide substrate. Compounds to be tested are dissolved in 100% DMSO and directly distributed into white 384-well plates at 0.5 piper well. […] After 15 minutes, 10 μl of 80 μM ATP in assay buffer is added. Final assay concentrations are 5 nM PIM1, 40 μM ATP, 100 μM BAD peptide and 2.5% DMSO. The reaction is performed until approximately 50% of the ATP is depleted, then stopped by the addition of 20 μl KinaseGlo Plus (Promega Corporation) solution. The stopped reaction is incubated for 10 minutes and the remaining ATP detected via luminescence on the Victor2 (Perkin Elmer).

[1] = test system: KMS11 (human myeloma cell line); experiment: Cell Proliferation Assay; type: cell-based; settings: KMS-11, 72 h, KMS11 cells, 3 days, Cell Titer-Glow
Experimental: KMS11 (human myeloma cell line), were cultured in IMDM supplemented with 10% FBS, sodium pyruvate and antibiotics. Cells were plated in the same medium at a density of 2000 cells per well into 96 well tissue culture plates, with outside wells vacant, on the day of assay. MM1.s (human myeloma cell line), were cultured in RPMI1640 supplemented with 10% FBS, sodium pyruvate and antibiotics. Cells were plated in the same medium at a density of 5000 cells per well into 96 well tissue culture plates, with outside wells vacant, on the day of assay.
Test compounds supplied in DMSO were diluted into DMSO at 500 times the desired final concentrations before dilution into culture media to 2 times final concentrations. Equal volumes of 2× compounds were added to the cells in 96 well plates and incubated at 37° C. for 3 days.
After 3 days plates were equilibrated to room temperature and equal volume of Cell Titer-Glow Reagent (Promega) was added to the culture wells. The plates were agitated briefly and luminescent signal was measured with luminometer.
Using the procedures for Cell Proliferation Assay described above, the EC50 concentration of compounds of the previous examples were determined in KMS11 cells as shown in the following table.

Pim1 kinase, sequence (P11309 whole entry): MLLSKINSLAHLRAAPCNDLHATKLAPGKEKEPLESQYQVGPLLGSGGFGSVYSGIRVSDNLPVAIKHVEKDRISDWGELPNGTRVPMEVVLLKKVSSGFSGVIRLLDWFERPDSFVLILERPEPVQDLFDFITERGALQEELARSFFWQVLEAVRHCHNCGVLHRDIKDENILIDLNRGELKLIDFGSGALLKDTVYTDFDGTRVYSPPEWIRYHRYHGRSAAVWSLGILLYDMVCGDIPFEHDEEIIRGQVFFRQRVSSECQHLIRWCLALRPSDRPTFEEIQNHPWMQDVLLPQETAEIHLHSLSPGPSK

SMILES	IC50 (Pim1 kinase)	IC50 (Pim2 kinase)	IC50 (Pim3 kinase)	EC50 [1]
CCO[C@@H]1C[C@H](N)CN(c2ccncc2NC(=O)c2csc(-c3c(F)cccc3F)n2)C1 [Example 23, N-(4-((3S,5R)-3-amino-5-ethoxypiperidin-1-yl)pyridin-3-yl)-2-(2,6-difluorophenyl)thiazole-4-carboxamide]	56 nM	85 nM	86 nM	6540 nM
N[C@H]1C[C@@H](C(F)(F)F)CN(c2ccncc2NC(=O)c2csc(-c3c(F)cccc3F)n2)C1 [Example 27, N-(4-((3S,5R)-3-amino-5-(trifluoromethyl)piperidin-1-yl)pyridin-3-yl)-2-(2,6-difluorophenyl)thiazole-4-carboxamide]	1 nM	3 nM	3 nM	460 nM
C[C@H]1C[C@@H](c2ccncc2NC(=O)c2csc(-c3c(F)cccc3F)n2)C[C@@H](N)[C@@H]1O [Example 41, N-(4-((1R,3R,4R,5S)-3-amino-4-hydroxy-5-methylcyclohexyl)pyridin-3-yl)-2-(2,6-difluorophenyl)thiazole-4-carboxamide (and enantiomer)]	4 nM	27 nM	8 nM	> 10000 nM

Further lines, results first:

IC50 (Pim1 kinase)	IC50 (Pim2 kinase)	IC50 (Pim3 kinase)	EC50 [1]	SMILES
1 nM	8 nM	5 nM	930 nM	CC1CCN(c2ccncc2NC(=O)c2csc(-c3c(F)cccc3F)n2)CC1N (centres unmarked) [Example 19, N-(4-(3-amino-4-methylpiperidin-1-yl)pyridin-3-yl)-2-(2,6-difluorophenyl)thiazole-4-carboxamide]
1 nM	3 nM	3 nM	560 nM	C[C@H]1CN(c2ccncc2NC(=O)c2csc(-c3c(F)cccc3F)n2)C[C@@H](N)[C@@H]1O [Example 36, N-(4-((3R,4R,5S)-3-amino-4-hydroxy-5-methylpiperidin-1-yl)pyridin-3-yl)-2-(2,6-difluorophenyl)thiazole-4-carboxamide]
